Columns and labels:
[1] = biological target: T1, 3-dehydroquinate dehydratase (Mycobacterium tuberculosis, UniProt P9WPX7); assay: (§1) Competitive reversible inhibition of Mycobacterium tuberculosis type 2 dehydroquinase expressed in Escherichia coli BL21 (DE3) cells assessed as enone-carboxylate chromophore of 3-dehydroshikimate formation using 3-dehydroquinate as substrate preincubated with enzyme for 3 mins prior to substrate addition by UV spectrophotometric assay
T1 sequence (P9WPX7 whole entry): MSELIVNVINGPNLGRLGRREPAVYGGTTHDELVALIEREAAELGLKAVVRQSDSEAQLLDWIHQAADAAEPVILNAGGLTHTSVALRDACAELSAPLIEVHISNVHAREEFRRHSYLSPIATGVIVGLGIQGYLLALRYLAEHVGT

[2] = biological target: T2, 3-dehydroquinate dehydratase (Helicobacter pylori (strain ATCC 700392 / 26695) (Campylobacterpylori), UniProt Q48255); assay: as §1, with “Helicobacter pylori” for “Mycobacterium tuberculosis”
T2 sequence (Q48255 whole entry): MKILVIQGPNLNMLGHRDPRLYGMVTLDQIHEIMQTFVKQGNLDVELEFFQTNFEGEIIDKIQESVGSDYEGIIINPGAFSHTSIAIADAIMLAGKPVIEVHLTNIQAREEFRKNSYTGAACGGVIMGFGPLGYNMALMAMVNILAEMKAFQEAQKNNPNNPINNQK

[3] = biological target: T3, 3-dehydroquinate dehydratase (Streptomyces coelicolor (strain ATCC BAA-471 / A3(2) / M145), UniProt P15474); assay: as §1, with “Strepotomyces coelicolor” for “Mycobacterium tuberculosis”
T3 sequence (P15474 whole entry): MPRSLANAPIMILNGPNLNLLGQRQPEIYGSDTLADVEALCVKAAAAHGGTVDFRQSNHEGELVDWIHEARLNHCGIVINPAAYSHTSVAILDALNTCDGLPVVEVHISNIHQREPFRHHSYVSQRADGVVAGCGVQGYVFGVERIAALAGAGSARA

Question: How did the Ki [1] turn out when `O=C(O)c1cccc(-n2cc(C3=C[C@@](O)(C(=O)O)C[C@@H](O)[C@@H]3O)nn2)c1` was run?
Answer: Its Ki is 3130 nM.

Question: What about the Ki [2] of the same compound?
Answer: Its Ki is 5780 nM.

Question: What about the Ki [3] of the same compound?
Answer: The Ki was 1720 nM.

Question: For `O=C(O)[C@]1(O)C=C(c2cn(-c3cccnc3)nn2)[C@@H](O)[C@H](O)C1`, which Ki [1] is on record?
Answer: The Ki was 136 nM.

Question: And the Ki [2]?
Answer: The Ki was 375 nM.

Question: What about the Ki [3] of the same compound?
Answer: The Ki was 5.7 nM.

Question: What does the source list for `O=C(O)[C@]1(O)C=C(c2cn(Cc3cccs3)nn2)[C@@H](O)[C@H](O)C1`?
Answer: Ki [1]: 1580 nM; Ki [2]: 925 nM; Ki [3]: 73 nM

Question: Which Ki [1] does the source give for `O=C(O)[C@]1(O)C=C(c2cn(-c3cccc([N+](=O)[O-])c3)nn2)[C@@H](O)[C@H](O)C1` here?
Answer: The Ki was 230 nM.

Question: And the Ki [2]?
Answer: Its Ki is 538 nM.

Question: And the Ki [3]?
Answer: The Ki was 78 nM.

Question: How did the Ki [1] turn out when `O=C(O)[C@]1(O)C=C(c2cn(Cc3ccco3)nn2)[C@@H](O)[C@H](O)C1` was run?
Answer: The Ki was 2120 nM.

Question: And the Ki [2]?
Answer: The Ki was 2200 nM.

Question: And the Ki [3]?
Answer: Its Ki is 217 nM.

Question: Which results are given for `O=C(O)[C@]1(O)C=C(c2cn(-c3ccc(F)cc3)nn2)[C@@H](O)[C@H](O)C1`?
Answer: Ki [1]: 154 nM; Ki [2]: 561 nM; Ki [3]: 29 nM

Question: With `O=C(O)[C@]1(O)C=C(c2cn(-c3ccccc3)nn2)[C@@H](O)[C@H](O)C1` as the compound, how does the Ki [1] read?
Answer: The Ki was 39 nM.

Question: What about the Ki [2] of the same compound?
Answer: The Ki was 225 nM.

Question: What about the Ki [3] of the same compound?
Answer: The Ki was 5.7 nM.

Question: What does the source list for `O=C(O)[C@]1(O)C=C(c2cn(-c3ccccc3O)nn2)[C@@H](O)[C@H](O)C1`?
Answer: Ki [1]: 330 nM; Ki [2]: 157 nM; Ki [3]: 48 nM

Source: ChEMBL document CHEMBL3217657, “Rapid assembly of potent type II dehydroquinase inhibitors viaClick chemistry” (Medchemcomm, 2010)
